Our source for the Papp values is paper PMC8092876, “A Leucyl-tRNA Synthetase Inhibitor with Broad-Spectrum Antimycobacterial Activity” (Antimicrobial Agents and Chemotherapy, 2021).

This data set is described as follows: AMP (artificial membrane permeability) assay. Type of data set: in vitro ADME. The conditions noted are these: PAMPA, pH 7.4. On the procedure:
An 8% L-α-phosphatidylcholine (EPC) in 1% cholesterol decane solution and a 1.8% EPC in cholesterol decane solution were prepared. The lipid solution was then aliquoted into 4 ml capped vials, sealed with parafilm, and stored in a −20°C freezer. The lipid solution was then transferred from 4 ml vial into a 96-well half area plate (130 μl/well) for daily assay usage. An additional 50 mM phosphate buffer with 0.5% encapsin (pH 7.4) was prepared. The assay was run by the Biomek FX and Biomek software. The assay procedure is written under the Biomek software. For one batch assay, it can test two 96-well sample plates with at least one standard on each sample plate. The total assay time was about 4 h. A total of 3.5 μl of lipid solution was added to the filler plate and shaken for 12 s, 250 μl of buffer was added to the donor side, and 100 μl of buffer was added to the receiver side. The assay plate was shaken for 45 min before adding the compounds. The test compounds (2.5 μl) were added to the donor side. The assay was run as replicates: assay plates 1 and 2 tested sample plate 1, and assay plates 3 and 4 tested sample plate 2. The assay plates were then incubated and shaken for 3 h at room temperature. […] Compound concentration was measured by HPLC at different time points.

In the case of `CC(C)(O)COc1ccc(Br)c2c1B(O)O[C@@H]2CN` [EC/11770], the Papp at 3 h worked out at 27.5 ×10⁻⁶ cm/s.
